Marks after values point to notes of the source that are not given here.
What was measured:
[1] = test system: Gastric lesions induced by necrotizing agents (80% ethanol, 0.2 mol/L NaOH or 25% NaCl); experiment: Gastric lesions induced by necrotizing agents (cytoprotection); assay type: in vivo, Albino Wistar rats; conditions: i.p, 30 min before necrotizing agent, mean ± SE
[2] = test system: gastric mucosa of rats treated with 80% Ethanol; experiment: Histopathological evaluation of gastric tissue; assay type: in vivo, Albino Wistar rats; conditions: 50 mg/kg; FIG. 15B-15F
Protocol: Histopathological evaluation: Gastric tissue samples were fixed in neutral buffered formalin for 24 hours. Sections of gastric tissue were histopathologically examined to study the ulcerogenic and/or anti-ulcerogenic activity of compounds (N-3, N-8, N-11, and N-15). The tissues were fixed in 10% buffered formalin and processed using a VIP tissue processor. The processed tissues were embedded in paraffin blocks and sections about […] thick were cut using an American optical rotary microtome. These sections were stained with haematoxylin and eosin using routine procedures. The slides were examined microscopically for pathomorphological changes such as congestion, hemorrhage, edema, and erosions using an arbitrary scale for severity assessment of these changes (FIGS. 3-14).

[3] = test system: malondialdehyde in stomach tissue, induced by 80% ethanol; experiment: Determination of malondialdehyde (MDA); assay type: in vivo, Albino Wistar rats; conditions: mean ± SE
Protocol: (§1) Albino Wistar rats of either sex, approximately the same age, weighing 150 to 200 g and fed on a diet of standard chow were used in this study. They were randomly divided into experimental groups of six rats each. Compounds (N-1 to N-18) 12.5, 25, and 50 mg/kg were given orally in the anti-ulcer studies and intraperitoneally for gastric secretion evaluation. The rats were sacrificed, and the stomachs removed and opened along the greater curvature, After washing with saline, the gastric lesions were quantified by a person unaware of the treatments. The animal study protocol was approved by the Research and Ethics Committee of the Experimental Animal Care Society, College of Pharmacy, King Saud University, Riyadh, Saudi Arabia.
Determination of malondialdehyde (MDA): The animals were sacrificed 1 hour after ethanol administration. The stomachs were removed and each was homogenized in 0.15 mol/L KCl (at 4° C.) in a Potter-Elvehjem type C homogenizer to give a 10% w/v homogenate. Aliquots of homogenate 1 mL in volume were incubated at 37° C. for 3 hours in a metabolic shaker. Then 1 mL of 10% aqueous TCA was added and mixed. The mixture was then centrifuged at 800 g for 10 minutes. One milliliter of the supernatant was removed and mixed with 1 mL of 0.67% w/v thiobarbituric acid in water and placed in a boiling water bath for 10 minutes. The mixture was cooled and diluted with 1 mL distilled water. The absorbance of the solution was then read at 535 nm. The content of malondialdehyde (nmol/g wet tissue) (index of the magnitude of lipid peroxidation) was then calculated, by reference to a standard curve of malondialdehyde solution. Table 7 provides the effect of compounds on the levels of MDA, NP_SH, and total protein in stomach tissue induced by 80% ethanol (mean±SE).

[4] = test system: Indomethacin-induced gastric mucosal lesions; experiment: Gastric lesions induced by Indomethacin; assay type: in vivo, Albino Wistar rats; design: scale not given here; conditions: i.p, 30 min before Indomethacin 30 mg/kg, mean ± SE
Description: as §1, with “Compounds (N-1 to N-18) 12.5, 25, and 50 mg/kg were given orally in the anti-ulcer studies and intraperitoneally for gastric secretion evaluation.” left out
Gastric lesions induced by Indomethacin: Indomethacin was suspended in 1.0% carboxymethylcellulose (CMC) in water (6 mg/mL) and administered orally to the 36 hour fasted rats at a dose of 30 mg/kg body weight. Control rats were treated similarly with an equivalent amount of vehicle. […] The animals were sacrificed 6 hours after treatment. The stomachs were excised, rinsed with normal saline and examined for ulceration. Table 3 provides the effect of compounds on Indomethacin-induced gastric mucosal lesions (mean±SE).

[5] = test system: gastric mucosal non-protein sulfhydryls, induced by 80% ethanol; experiment: Estimation of non-protein sulfhydryls (NP-SH); assay type: in vivo, Albino Wistar rats; conditions: stomach tissue, 80% ethanol-treated rats, mean ± SE
Protocol: as §1
Estimation of non-protein sulfhydryls (NP_SH): Gastric mucosal non-protein sulfhydryls were measured according to the method. The glandular part of the stomach was homogenized in ice-cold 0.02 mmol/L ethylenediaminetetraacetic acid (EDTA). Aliquots of 5 mL of the homogenates were mixed in 15 mL test tubes with 4 mL of distilled water and 1 mL of 50% trichloroacetic acid (TCA). The tubes were shaken intermittently for 10 minutes and centrifuged at 3000 r/min. Two milliliters of supernatant were mixed with 4 mL of 0.4 mol/L Tris buffer at pH 8.9. Then 0.1 ML of 5, 5′-dithio-bis (2-nitrobenzoic acid) (DTNB) was added and the sample was shaken. The absorbance was measured within 5 minutes of DTNB addition at 412 nm against a reagent blank.

[6] = test system: mouse; experiment: in vivo; conditions: 24 h
Description: (§2) At the end of the study period, expired animals were counted for the calculation of LD50. The following arithmetic method from Karber (Arch. Exptl. Pathol. Pharmakol, […], 162, 480-483) was used for the determination of LD50: LD50=LD100−Σ×(a×b)/n
(§3) wherein n=total number of animals in a group; a=the difference between two successive doses of administered extract/substance; b=the average number of dead animals in two successive doses; and LD100=lethal dose causing the 100% death of all test animals.
(§4) Table 8 provides the LD50 values of the compounds determined by the Karber method.

[7] = in vivo; conditions: mouse
Description: as §2, §3, §4

[8] = test system: Hypothermic restraint stress-induced intraluminal bleeding and gastric lesion; experiment: Hypothermic restraint stress-induced ulcers; assay type: in vivo, Albino Wistar rats; design: Gastric Lesion Ulcer Index: scale not given here; conditions: hypothermic restraint 3 h, mean ± SE
[9] = dose 12.5, 80% ethanol-treated rats
[10] = dose 25, 80% ethanol-treated rats
[11] = dose 50, 80% ethanol-treated rats

| Structure (SMILES) | Ulcer Index, 0.2 mol/L NaOH ([1]; 12.5 mg/kg) | Ulcer Index, 25% NaCl ([1]; 12.5 mg/kg) | Ulcer Index, 80% EtOH ([1]; 12.5 mg/kg) | Ulcer Index, 0.2 mol/L NaOH ([1]; 25 mg/kg) | Ulcer Index, 25% NaCl ([1]; 25 mg/kg) | Ulcer Index, 80% EtOH ([1]; 25 mg/kg) | Ulcer Index, 0.2 mol/L NaOH ([1]; 50 mg/kg) | Ulcer Index, 25% NaCl ([1]; 50 mg/kg) | Ulcer Index, 80% EtOH ([1]; 50 mg/kg) | Gastric section, effect on gastric mucosa (histology) [2] | MDA [3, 9] | MDA [3, 10] | MDA [3, 11] | Ulcer Index, indomethacin-induced gastric mucosal lesions ([4]; 12.5 mg/kg) | Ulcer Index, indomethacin-induced gastric mucosal lesions ([4]; 50 mg/kg) | NP-SH ([5]; dose 12.5) | NP-SH ([5]; dose 25) | NP-SH ([5]; dose 50) | Gastric Lesion Ulcer Index ([8]; 12.5 mg/kg) | Intraluminal Bleeding Score ([8]; 12.5 mg/kg) | other results |
| --- | --- | --- | --- | --- | --- | --- | --- | --- | --- | --- | --- | --- | --- | --- | --- | --- | --- | --- | --- | --- | --- |
| COc1ccc(C2NC(=O)NC=C2C(=O)c2ccc(N3CCCCC3)cc2)c(OC)c1OC (stereo not shown) [Compound N-15, 4-(2,3,4-Trimethoxyphenyl)-5-[4-(piperidin-1-yl)benzoyl]-3,4-dihydropyrimidin-2(1H)-one] | 3.50 ± 0.22 | 3.66 ± 0.33 | 4.66 ± 0.33 | 2.16 ± 0.30 | 2.66 ± 0.33 | 2.66 ± 0.33 | 1.33 ± 0.42 | 1.66 ± 0.33 | 2.16 ± 0.30 | intact normal mucosa | 3.51 ± 0.08***^b nmol/g | 2.72 ± 0.10***^b nmol/g | 1.90 ± 0.06***^b nmol/g | 26.33 ± 1.30 | 14.50 ± 1.64 | 3.38 ± 0.07^b nmol/g | 4.29 ± 0.24**^b nmol/g | 4.92 ± 0.30***^b nmol/g | 25.66 ± 1.08 | 2.16 ± 0.30 | Dead (of 10 animals) ([6]; 5 mg/kg): 0; Dead (of 10 animals) ([6]; 25 mg/kg): 1; Dead (of 10 animals) ([6]; 50 mg/kg): 3; Dead (of 10 animals) ([6]; 100 mg/kg): 4; Dead (of 10 animals) ([6]; 200 mg/kg): 9; Dead (of 10 animals) ([6]; 300 mg/kg): 10; LD50 at 24 h [7]: 116 mg/kg; Gastric Lesion Ulcer Index ([8]; 25 mg/kg): 16.66 ± 0.33; Intraluminal Bleeding Score ([8]; 25 mg/kg): 1.66 ± 0.21; Gastric Lesion Ulcer Index ([8]; 50 mg/kg): 12.33 ± 0.84; Intraluminal Bleeding Score ([8]; 50 mg/kg): 1.33 ± 0.33 |
| CN(C)c1ccc(C2NC(=O)NC=C2C(=O)c2ccc(N3CCCCC3)cc2)cc1 (stereo not shown) [Compound N-11, 4-(4-Dimethylaminophenyl)-5-[4-(piperidin-1-yl)benzoyl]-3,4-dihydropyrimidin-2(1H)-one] | 6.33 ± 0.42 | 6.00 ± 0.36 | 7.16 ± 0.30 | 3.66 ± 0.21 | 4.83 ± 0.40 | 6.16 ± 0.30 | 3.66 ± 0.33 | 3.83 ± 0.30 | 4.83 ± 0.30 | intact normal mucosa | 5.16 ± 0.22***^b nmol/g | 3.99 ± 0.17***^b nmol/g | 3.36 ± 0.08***^b nmol/g | 33.00 ± 1.03 | 28.31 ± 1.78 | 2.93 ± 0.11^b nmol/g | 3.40 ± 0.18^b nmol/g | 4.35 ± 0.11***^b nmol/g | 29.83 ± 1.51 | 3.66 ± 0.33 | Ulcer Index, indomethacin-induced gastric mucosal lesions ([4]; 25 mg/kg): 30.66 ± 1.28; Gastric Lesion Ulcer Index ([8]; 50 mg/kg): 21.00 ± 0.51; Intraluminal Bleeding Score ([8]; 50 mg/kg): 2.00 ± 0.36; Gastric Lesion Ulcer Index ([8]; 75 mg/kg): 29.00 ± 1.21; Intraluminal Bleeding Score ([8]; 75 mg/kg): 2.66 ± 0.33 |
| COc1ccccc1C1NC(=O)NC=C1C(=O)c1ccc(N2CCCCC2)cc1 (stereo not shown) [Compound N-8, 4-(2-Methoxyphenyl)-5-[4-(piperidin-1-yl)benzoyl]-3,4-dihydropyrimidin-2(1H)-one] | 6.66 ± 0.33 | 6.00 ± 0.25 | 7.00 ± 0.36 | 5.33 ± 0.71 | 5.00 ± 0.44 | 6.50 ± 0.42 | 3.83 ± 0.30 | 3.33 ± 0.30 | 5.83 ± 0.30 | intact normal mucosa | 6.63 ± 0.26^b nmol/g | 4.83 ± 0.24***^b nmol/g | 3.75 ± 0.07***^b nmol/g | 33.00 ± 1.52 | 28.66 ± 1.45 | 3.49 ± 0.16^b nmol/g | 3.61 ± 0.12^b nmol/g | 4.61 ± 0.27**^b nmol/g | 29.83 ± 1.50 | 3.50 ± 0.42 | Ulcer Index, indomethacin-induced gastric mucosal lesions ([4]; 25 mg/kg): 29.50 ± 1.58; Dead (of 10 animals) ([6]; 5 mg/kg): 0; Dead (of 10 animals) ([6]; 25 mg/kg): 2; Dead (of 10 animals) ([6]; 50 mg/kg): 6; Dead (of 10 animals) ([6]; 100 mg/kg): 9; Dead (of 10 animals) ([6]; 200 mg/kg): 10; Dead (of 10 animals) ([6]; 300 mg/kg): 10; LD50 at 24 h [7]: 55.5 mg/kg; Gastric Lesion Ulcer Index ([8]; 25 mg/kg): 27.66 ± 1.60; Intraluminal Bleeding Score ([8]; 25 mg/kg): 3.33 ± 0.21; Gastric Lesion Ulcer Index ([8]; 50 mg/kg): 18.66 ± 0.55; Intraluminal Bleeding Score ([8]; 50 mg/kg): 2.50 ± 0.42 |
